Source: patent US20040191326A1, “Taste-masking vehicle for coated oxazolidinone particles” (priority 2003, published 2004)
Several values for one entry are separate records, joined by “and”; a condition that tells them apart may be missing. Equal entries are not always repeated. Where two headings read alike, the source gives them in different places.

What was measured:
[1] = Water activity (Pawkit water activity meter); format: physicochemical; settings: sorbitol 9.9 molal, fructose 16.6 molal, sucrose 5.3 molal
Experimental: A Pawkit water activity meter uses a dielectric humidity sensor to measure the water activity (aw) of a sample. The unit is accurate to ±0.02 aw. The water activity meter was calibrated, using a 6.0 molal NaCl solution, before each new set of measurements was taken. Each sample was measured in duplicate.

[2] = Viscosity measurements (Bohlin Rheometer), screening and optimization phases; format: physicochemical; settings: sorbitol 9.9 molal, fructose 16.6 molal, sucrose 5.3 molal (highest concentrations studied)
Experimental: 2. Viscosity Measurements
In the screening and optimization phases, described below, viscosity measurements were made using a Bohlin Rheometer, under the following conditions: a 10.0 pascal sheer stress and a continuous, single sweep type at a temperature of 25.0° C.

[3] = cited from earlier work

| Water activity of solution [1] | Viscosity of solution [2] | SMILES | Dosage with laxative effect ([3]; adults) [grams/day] | Dosage with laxative effect ([3]; children) |
| --- | --- | --- | --- | --- |
| 0.81 | 48 cps | OC[C@@H](O)[C@@H](O)[C@H](O)[C@@H](O)CO [sorbitol] | ≥ 20 | greater than 0.5 g/kg body weight |
| 0.86 | 119 cps | OC[C@H]1O[C@@](CO)(O[C@H]2O[C@H](CO)[C@@H](O)[C@H](O)[C@H]2O)[C@@H](O)[C@@H]1O [sucrose] |  |  |

| SMILES | Water activity of solution [1] | Viscosity of solution [2] | Dosage with laxative effect ([3]; adults) [grams/day] | Dosage with laxative effect ([3]; children) |
| --- | --- | --- | --- | --- |
| O=C(CO)[C@@H](O)[C@H](O)[C@H](O)CO [fructose] | 0.70 | 429 cps and 439 cps |  |  |
